The values below are quoted from earlier work in patent US10912848B2, “Dual-purpose PAT/ultrasound contrast agent bound with nanoparticles containing drug and method for preparing same” (IMGT CO, LTD., priority 2014, dated 2021).

Molecules are shown by their SMILES. Like-named read-outs stand apart in the source and are kept apart here.

The conditions of the data set: 25° C.

For the compound `CC(=O)Oc1ccccc1C(=O)O` [aspirin], the “volume of solvent required to dissolve 1 g of drug” value by setting is: (H2O) 300 mL; (ethanol) 5 mL.
